Measurements published in patent publication US12545673B2, “Imidazopyridine derivative and pharmaceutical composition comprising same as active ingredient” (TSD LIFE SCIENCES CO., LTD., priority 2019, dated 2026).
Where two headings read alike, the source gives them in different places.

Key:
[1] = system: acute lymphoblastic leukemia cell line Jurkat; experiment: Cancer cell proliferation inhibitory activity evaluation 2 (CCK-8), Jurkat; format: cell-based; conditions: Homo sapiens
Protocol: (§1) In order to identify whether the compounds have anticancer activity, the acute myeloid leukemia cell line U937, the acute lymphoblastic leukemia cell line Jurkat, the gastric cancer cell lines AGS, […], and the human lung cancer cell line A549 were used. The cell line was cultured using RPMI-1640 medium (U937, Jurkat, AGS, A549) or DMEM (Hs746T) medium containing 10% fetal bovine serum. Welgene products were used as the medium, and hyclone products were used for fetal bovine serum, and 1% of antibiotics for cell culture from Gibco were used as the culture medium.

[2] = system: gastric cancer cell line AGS; experiment: Cancer cell proliferation inhibitory activity evaluation 2 (CCK-8), AGS; format: cell-based; conditions: Homo sapiens, read-out: Cancer cell proliferation inhibitory activity AGS
Protocol: as §1

[3] = target: MLK3 (Homo sapiens (Human), UniProt Q16584); experiment: Evaluation of inhibitory activity of enzyme units, MLK3 ([γ-33P]-ATP filter assay); conditions: read-out: IC50(nM) MLK3
[4] = system: acute myeloid leukemia cell line U937; experiment: Cancer cell proliferation inhibitory activity evaluation 2 (CCK-8), U937; format: cell-based; conditions: Homo sapiens, read-out: Cancer cell proliferation inhibitory activity U937
Protocol: as §1

[5] = system: gastric cancer cell line Hs746T; experiment: Cancer cell proliferation inhibitory activity evaluation 2 (CCK-8), Hs746T; format: cell-based; conditions: Homo sapiens
Protocol: as §1

[6] = system: human lung cancer cell line A549; experiment: Cancer cell proliferation inhibitory activity evaluation 2 (CCK-8), A549; format: cell-based
Protocol: as §1

[7] = target: MLK1 (Homo sapiens (Human), UniProt P80192); experiment: Evaluation of inhibitory activity of enzyme units, MLK1 ([γ-33P]-ATP filter assay); format: biochemical
[8] = 72 h, read-out: Cancer cell proliferation inhibitory activity Jurkat
[9] = 72 h, read-out: Cancer cell proliferation inhibitory activity Hs746T
[10] = A549, 72 h, read-out: Cancer cell proliferation inhibitory activity A549
[11] = 10 μM, 72 hours, CCK-8, read-out: Cancer cell proliferation inhibitory activity Jurkat
[12] = U-937, 10 μM, 72 hours, CCK-8 (Table 3)
[13] = 10 μM, 72 hours, CCK-8, read-out: Cancer cell proliferation inhibitory activity Hs746T
[14] = A549, 10 μM, 72 hours, CCK-8, read-out: Cancer cell proliferation inhibitory activity A549

Sequence of MLK3 (Q16584 whole entry, looked up): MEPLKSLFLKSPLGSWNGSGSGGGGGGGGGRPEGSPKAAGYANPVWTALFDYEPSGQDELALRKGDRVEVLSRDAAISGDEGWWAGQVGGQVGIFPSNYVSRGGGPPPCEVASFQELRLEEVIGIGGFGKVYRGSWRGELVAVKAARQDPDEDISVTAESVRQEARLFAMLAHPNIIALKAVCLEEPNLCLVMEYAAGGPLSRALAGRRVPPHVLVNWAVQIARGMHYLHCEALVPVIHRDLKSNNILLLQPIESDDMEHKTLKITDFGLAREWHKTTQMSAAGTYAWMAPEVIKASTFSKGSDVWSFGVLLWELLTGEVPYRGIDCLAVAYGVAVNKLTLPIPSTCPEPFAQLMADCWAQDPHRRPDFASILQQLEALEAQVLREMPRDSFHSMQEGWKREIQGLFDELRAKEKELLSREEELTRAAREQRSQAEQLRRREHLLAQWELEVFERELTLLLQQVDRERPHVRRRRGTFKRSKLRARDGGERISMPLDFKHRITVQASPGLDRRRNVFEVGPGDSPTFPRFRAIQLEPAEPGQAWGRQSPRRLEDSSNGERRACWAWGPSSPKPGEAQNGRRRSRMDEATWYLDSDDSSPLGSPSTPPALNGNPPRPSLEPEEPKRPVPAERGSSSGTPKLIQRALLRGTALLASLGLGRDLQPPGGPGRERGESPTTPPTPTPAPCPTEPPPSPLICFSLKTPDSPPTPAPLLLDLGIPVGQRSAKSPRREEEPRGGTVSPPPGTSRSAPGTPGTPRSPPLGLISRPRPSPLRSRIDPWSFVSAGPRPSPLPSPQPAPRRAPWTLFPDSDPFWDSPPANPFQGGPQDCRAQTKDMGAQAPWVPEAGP
Sequence of MLK1 (P80192 whole entry, looked up): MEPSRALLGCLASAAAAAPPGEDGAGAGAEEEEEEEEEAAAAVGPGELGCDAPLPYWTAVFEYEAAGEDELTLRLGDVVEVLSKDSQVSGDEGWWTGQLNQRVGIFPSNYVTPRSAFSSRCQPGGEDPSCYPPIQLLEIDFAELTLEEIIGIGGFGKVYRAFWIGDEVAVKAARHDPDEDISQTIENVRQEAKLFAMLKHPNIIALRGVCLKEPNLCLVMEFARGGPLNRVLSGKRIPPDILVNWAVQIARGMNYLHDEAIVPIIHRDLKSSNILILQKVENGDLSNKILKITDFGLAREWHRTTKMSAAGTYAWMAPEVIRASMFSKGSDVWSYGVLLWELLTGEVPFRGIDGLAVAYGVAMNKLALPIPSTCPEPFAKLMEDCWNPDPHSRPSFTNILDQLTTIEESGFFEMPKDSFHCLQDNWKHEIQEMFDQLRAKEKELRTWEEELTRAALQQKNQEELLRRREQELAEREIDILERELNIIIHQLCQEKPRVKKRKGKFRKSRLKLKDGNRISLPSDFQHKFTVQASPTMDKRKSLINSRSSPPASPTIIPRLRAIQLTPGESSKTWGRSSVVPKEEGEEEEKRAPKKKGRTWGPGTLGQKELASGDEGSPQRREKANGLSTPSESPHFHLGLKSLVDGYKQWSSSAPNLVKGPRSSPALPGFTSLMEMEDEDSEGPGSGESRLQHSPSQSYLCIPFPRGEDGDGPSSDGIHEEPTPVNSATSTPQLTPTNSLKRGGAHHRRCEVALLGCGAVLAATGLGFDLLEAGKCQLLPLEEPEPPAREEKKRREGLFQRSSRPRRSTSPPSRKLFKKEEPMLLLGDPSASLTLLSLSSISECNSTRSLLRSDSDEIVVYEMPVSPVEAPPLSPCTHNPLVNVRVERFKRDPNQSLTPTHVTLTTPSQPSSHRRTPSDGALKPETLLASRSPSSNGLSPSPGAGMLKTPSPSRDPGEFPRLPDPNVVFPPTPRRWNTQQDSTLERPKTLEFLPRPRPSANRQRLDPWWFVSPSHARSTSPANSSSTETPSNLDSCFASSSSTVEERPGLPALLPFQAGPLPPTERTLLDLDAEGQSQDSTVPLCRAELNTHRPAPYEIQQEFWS

`CCS(=O)(=O)N1CC[C@H](Nc2c(Br)cnc3[nH]c(-c4cc(C)n(-c5cccc(NS(C)(=O)=O)c5C)c4C)nc23)C1` [Example 9, N-(3-(3-(6-bromo-7-(((S)-1-(ethylsulfonyl)pyrrolidine-3-yl)amino)-3H-imidazo[4,5-b]pyridine-2-yl)-2,5-dimethyl-1H-pyrrol-1-yl)-2-methylphenyl) methanesulfonamide] was tested, and the inhibition at 10 µM [1, 8] was greater than 50%, the inhibition at 10 µM ([2]; 72 h) was greater than 50% and the IC50 [3] was 10 nM. The inhibition at 10 µM ([4]; U-937, 72 h) was greater than 50%, the inhibition at 10 µM [5, 9] was greater than 50% and the inhibition at 10 µM [6, 10] was greater than 50%.
Molecule `Cc1ccc(NC(=O)CN(C)C)cc1-n1c(C)cc(-c2nc3ncc(Br)c(Nc4cccc(S(N)(=O)=O)c4)c3[nH]2)c1C` [Example 90, N-(3-(3-(6-bromo-7-((3-sulfamoylphenyl)amino)-1H-imidazo[4,5-b]pyridine-2-yl)-2,5-dimethyl-1H-pyrrol-1-yl)-4-methylphenyl)-2-(dimethylamino) acetamide] has an inhibition at 10 µM [1, 11] greater than 50%, an inhibition at 10 µM ([2]; 10 μM, 72 hours, CCK-8) greater than 50% and an IC50 [7] of 160 nM. The IC50 [3] was 92 nM, the inhibition at 10 µM [4, 12] was 10 to 50% and the inhibition at 10 µM [5, 13] was 10 to 50%. It also gave an inhibition at 10 µM [6, 14] of 10 to 50%.
For `CCS(=O)(=O)N1CC[C@H](Nc2ccnc3[nH]c(-c4cc(C)n(-c5cc(NS(C)(=O)=O)ccc5C)c4C)nc23)C1` [Example 50, N-(3-(3-(7-(((S)-1-(ethylsulfonyl)pyrrolidine-3-yl)amino)-3H-imidazo[4,5-b]pyridine-2-yl)-2,5-dimethyl-1H-pyrrol-1-yl)-4-methylphenyl) methanesulfonamide], the IC50 [7] was greater than 30000 nM and the IC50 [3] was greater than 30000 nM.
Work on `CCS(=O)(=O)N1CC[C@H](Nc2c(Br)cnc3[nH]c(-c4cc(C)n(-c5ccc(C(=O)O)cc5)c4C)nc23)C1` [Example 59, (S)-4-(3-(6-bromo-7-((1-(ethylsulfonyl)pyrrolidine-3-yl)amino)-3H-imidazo[4,5-b]pyridine-2-yl)-2,5-dimethyl-1H-pyrrol-1-yl)benzoic acid] yielded an inhibition at 10 µM [1, 8] of 10 to 50%, an inhibition at 10 µM ([2]; 72 h) of less than 10% and an IC50 [3] of 19 nM. For the same molecule, the inhibition at 10 µM ([4]; U-937, 72 h) was 10 to 50%, the inhibition at 10 µM [5, 9] was 10 to 50% and the inhibition at 10 µM [6, 10] was less than 10%.
Molecule `CCS(=O)(=O)N1CC[C@H](Nc2c(Cl)cnc3nc(-c4cc(C)n(-c5ccc(OCCN6CCOCC6)cc5)c4C)[nH]c23)C1` [Example 52, (S)-6-chloro-2-(2,5-dimethyl-1-(4-(2-morpholinoethoxy)phenyl)-1H-pyrrol-3-yl)-N-(1-(ethylsulfonyl)pyrrolidine-3-yl)-1H-imidazo[4,5-b]pyridine-7-amine] has an inhibition at 10 µM [1, 11] greater than 50%, an IC50 [7] of 87 nM and an IC50 [3] of 324 nM. The inhibition at 10 µM [4, 12] was greater than 50%, the inhibition at 10 µM [5, 13] was greater than 50% and the inhibition at 10 µM [6, 14] was 10 to 50%.
`CCN(CC)CCNC(=O)c1cccc(-n2c(C)cc(-c3nc4ncc(Br)c(N[C@H]5CCN(S(=O)(=O)CC)C5)c4[nH]3)c2C)c1` [Example 56, (S)-3-(3-(6-bromo-7-((1-(ethylsulfonyl)pyrrolidine-3-yl)amino)-1H-imidazo[4,5-b]pyridine-2-yl)-2,5-dimethyl-1H-pyrrol-1-yl)-N-(2-(diethylamino)ethyl)benzamide] was tested, and the inhibition at 10 µM [1, 11] was greater than 50%, the inhibition at 10 µM ([2]; 10 μM, 72 hours, CCK-8) was greater than 50% and the IC50 [3] was 122 nM. The inhibition at 10 µM [4, 12] was greater than 50%, the inhibition at 10 µM [5, 13] was greater than 50% and the inhibition at 10 µM [6, 14] was greater than 50%.
`CCS(=O)(=O)N1CC[C@H](Nc2c(Br)cnc3[nH]c(-c4cc(C)n(-c5ccc(NS(C)(=O)=O)cc5C)c4C)nc23)C1` [Example 8, N-(4-(3-(6-bromo-7-(((S)-1-(ethylsulfonyl)pyrrolidine-3-yl)amino)-3H-imidazo[4,5-b]pyridine-2-yl)-2,5-dimethyl-1H-pyrrol-1-yl)-3-methylphenyl) methanesulfonamide] was tested, and the inhibition at 10 µM [1, 8] was greater than 50%, the inhibition at 10 µM ([2]; 72 h) was greater than 50% and the IC50 [3] was 7 nM. The inhibition at 10 µM ([4]; U-937, 72 h) was greater than 50%, the inhibition at 10 µM [5, 9] was greater than 50% and the inhibition at 10 µM [6, 10] was greater than 50%.
In the case of `CCS(=O)(=O)N1CC[C@H](Nc2c(Br)cnc3nc(-c4cc(C)n(-c5cccc(NC(=O)CCN(C)C)c5C)c4C)[nH]c23)C1` [Example 86, N-(3-(3-(6-bromo-7-(((S)-1-(ethylsulfonyl)pyrrolidine-3-yl)amino)-1H-imidazo[4,5-b]pyridine-2-yl)-2,5-dimethyl-1H-pyrrol-1-yl)-2-methylphenyl)-3-(dimethylamino) propanamide], the IC50 [7] is reported as 15 nM and the IC50 [3] is reported as 7 nM.
`CCS(=O)(=O)N1CC[C@H](Nc2c(Cl)cnc3[nH]c(-c4cc(C)n(-c5cc(NS(C)(=O)=O)ccc5C)c4C)nc23)C1` [Example 51, N-(3-(3-(6-chloro-7-(((S)-1-(ethylsulfonyl)pyrrolidine-3-yl)amino)-3H-imidazo[4,5-b]pyridine-2-yl)-2,5-dimethyl-1H-pyrrol-1-yl)-4-methylphenyl) methanesulfonamide] showed an inhibition at 10 µM [1, 11] greater than 50%, an IC50 [7] of 53 nM and an IC50 [3] of 330 nM. For the same molecule, the inhibition at 10 µM [4, 12] was greater than 50%, the inhibition at 10 µM [5, 13] was greater than 50% and the inhibition at 10 µM [6, 14] was 10 to 50%.
`CCN(CC)CCNC(=O)c1ccc(-n2c(C)cc(-c3nc4ncc(Br)c(N[C@H]5CCN(S(=O)(=O)CC)C5)c4[nH]3)c2C)cc1` [Example 57, (S)-4-(3-(6-bromo-7-((1-(ethylsulfonyl)pyrrolidine-3-yl)amino)-1H-imidazo[4,5-b]pyridine-2-yl)-2,5-dimethyl-1H-pyrrol-1-yl)-N-(2-(diethylamino)ethyl)benzamide] showed an inhibition at 10 µM [1, 8] greater than 50%, an inhibition at 10 µM ([2]; 72 h) greater than 50% and an IC50 [3] of 97 nM. The inhibition at 10 µM ([4]; U-937, 72 h) was greater than 50%, the inhibition at 10 µM [5, 9] was greater than 50% and the inhibition at 10 µM [6, 10] was greater than 50%.
In the case of `CCS(=O)(=O)N1CC[C@H](Nc2c(Br)cnc3[nH]c(-c4cc(C)n(-c5ccc6c(c5)OCO6)c4C)nc23)C1` [Example 49, (S)-2-(1-(benzo[d][1,3]dioxole-5-yl)-2,5-dimethyl-1H-pyrrol-3-yl)-6-bromo-N-(1-(ethylsulfonyl)pyrrolidine-3-yl)-3H-imidazo[4,5-b]pyridine-7-amine], the IC50 [7] is reported as 50 nM and the IC50 [3] is reported as 15 nM.
Work on `Cc1cc(-c2nc3c(Nc4cccc(S(N)(=O)=O)c4)c(Br)cnc3[nH]2)c(C)n1-c1cccc(C(=O)N2CCOCC2)c1` [Example 28, 3-((6-bromo-2-(2,5-dimethyl-1-(3-(morpholine-4-carbonyl)phenyl)-1H-pyrrol-3-yl)-3H-imidazo[4,5-b]pyridine-7-yl)amino)benzenesulfonamide] yielded an inhibition at 10 µM [1, 11] of 10 to 50%, an inhibition at 10 µM ([2]; 10 μM, 72 hours, CCK-8) of 10 to 50% and an IC50 [3] of 57 nM. For the same molecule, the inhibition at 10 µM [4, 12] was less than 10%.
`CCS(=O)(=O)N1CC[C@H](Nc2c(Br)cnc3[nH]c(-c4cc(C)n(-c5cccc(C(=O)NCN(C)C)c5)c4C)nc23)C1` [Example 60, (S)-3-(3-(6-bromo-7-((1-(ethylsulfonyl)pyrrolidine-3-yl)amino)-3H-imidazo[4,5-b]pyridine-2-yl)-2,5-dimethyl-1H-pyrrol-1-yl)-N-((dimethylamino)methyl)benzamide] showed an inhibition at 10 µM [1, 8] greater than 50%, an inhibition at 10 µM ([2]; 72 h) greater than 50% and an IC50 [3] of 27 nM. The inhibition at 10 µM ([4]; U-937, 72 h) was greater than 50%, the inhibition at 10 µM [5, 9] was greater than 50% and the inhibition at 10 µM [6, 10] was greater than 50%.
In the case of `CCS(=O)(=O)N1CC[C@H](Nc2c(Br)cnc3nc(-c4cc(C)n(-c5cc(NC(=O)CCN(C)C)ccc5C)c4C)[nH]c23)C1` [Example 80], the inhibition at 10 µM [1, 11] is reported as greater than 50%, the inhibition at 10 µM ([2]; 10 μM, 72 hours, CCK-8) is reported as greater than 50% and the inhibition at 10 µM [4, 12] is reported as greater than 50%. It also gave an inhibition at 10 µM [5, 13] greater than 50% and an inhibition at 10 µM [6, 14] greater than 50%.
